# Legend:
# Assay in all cases: Cell growth assay
# Assay type in all cases: cell-based
# A427 = conditions: Homo sapiens, A-427, 72 h; A427, RAF WT, RAS WT, 3-day; read-out: gIC50
# Procedure, shortened: (§1)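 We assessed proliferation over 72 h using CellTiter-Glo, reading at the start and end. IC50 for growth inhibition (gIC50) was then determined.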
# SCC-12 = conditions: Homo sapiens, SCC12, 72 h; SCC-12, RAF WT, RAS WT, 3-day; read-out: gIC50
# Procedure, shortened: as §1
# SK-N-DZ(note) = conditions: Homo sapiens, 72 h, RAF WT, RAS WT, 3-day, read-out: gIC50
# Procedure, shortened: as §1
# SKOV-3 = conditions: Homo sapiens, SK-OV-3, 72 h; SKOV-3, RAF WT, RAS WT, 3-day; read-out: gIC50
# Procedure, shortened: as §1
# CESS = conditions: Homo sapiens, 72 h, RAF WT, RAS WT, 3-day, read-out: gIC50
# Procedure, shortened: as §1
# CEM/C1 = conditions: Homo sapiens, 72 h; CEM/C1, RAF WT, RAS WT, 3-day; read-out: gIC50
# Procedure, shortened: as §1
# SF-268 = conditions: Homo sapiens, 72 h; SF-268, RAF WT, RAS WT, 3-day; read-out: gIC50
# Procedure, shortened: as §1
# HCC-2998 = conditions: Homo sapiens, 72 h; HCC-2998, RAF WT, KRAS(A146T), 3-day; read-out: gIC50
# Procedure, shortened: as §1
# NCI-H2052 = conditions: Homo sapiens, 72 h; NCI-H2052, RAF WT, RAS WT, 3-day; read-out: gIC50
# Procedure, shortened: as §1
# A549 = conditions: Homo sapiens, 72 h; A549, RAF WT, KRAS(G12S), 3-day; read-out: gIC50
# Procedure, shortened: as §1
# A673 = conditions: Homo sapiens, 72 h; A673, BRAF(V600E), RAS WT, 3-day; read-out: gIC50
# Procedure, shortened: as §1
# P3HR-1 = conditions: Homo sapiens, 72 h; P3HR-1, RAF WT, RAS WT, 3-day; read-out: gIC50
# Procedure, shortened: as §1
# SW900 = conditions: Homo sapiens, 72 h; SW900, RAF WT, RAS WT, 3-day; read-out: gIC50
# Procedure, shortened: as §1
# MALME-3M = conditions: Homo sapiens, 72 h, BRAF(V600E), RAS WT, 3-day, read-out: gIC50
# Procedure, shortened: as §1
# G401 = conditions: Homo sapiens, G-401, 72 h; G401, RAF WT, RAS WT, 3-day; read-out: gIC50
# Procedure, shortened: as §1
# MDA-MB-175 VII = conditions: Homo sapiens, 72 h, RAF WT, RAS WT, 3-day, read-out: gIC50
# Procedure, shortened: as §1
# 786-O = conditions: Homo sapiens, 786-0, 72 h, RAF WT, RAS WT, 3-day, read-out: gIC50
# Procedure, shortened: as §1
# NCI-H187 = conditions: Homo sapiens, 72 h; NCI-H187, RAF WT, RAS WT, 3-day; read-out: gIC50
# Procedure, shortened: as §1
# SW756 = conditions: Homo sapiens, 72 h; SW756, RAF WT, KRAS(G12C), 3-day; read-out: gIC50
# Procedure, shortened: as §1
# EB-3 = conditions: Homo sapiens, 72 h; EB-3, RAF WT, RAS WT, 3-day; read-out: gIC50
# Procedure, shortened: as §1
# NCI-H2122 = conditions: Homo sapiens, 72 h; NCI-H2122, RAF WT, RAS WT, 3-day; read-out: gIC50
# Procedure, shortened: as §1
# Kato III = conditions: Homo sapiens, 72 h, RAF WT, RAS WT, 3-day, read-out: gIC50
# Procedure, shortened: as §1
# UACC-257 = conditions: Homo sapiens, 72 h; UACC-257, BRAF(V600E), RAS WT, 3-day; read-out: gIC50
# Procedure, shortened: as §1
# C3A = conditions: Homo sapiens, 72 h, RAF WT, RAS WT, 3-day, read-out: gIC50
# Procedure, shortened: as §1
# Raji = conditions: Homo sapiens, 72 h, RAF WT, RAS WT, 3-day, read-out: gIC50
# Procedure, shortened: as §1
# SR = conditions: Homo sapiens, 72 h, RAF WT, RAS WT, 3-day, read-out: gIC50
# Procedure, shortened: as §1
# OE-19 = conditions: Homo sapiens, OE19, 72 h; OE-19, RAF WT, RAS WT, 3-day; read-out: gIC50
# Procedure, shortened: as §1
# SW-780 = conditions: Homo sapiens, SW780, 72 h; SW-780, RAF WT, RAS WT, 3-day; read-out: gIC50
# Procedure, shortened: as §1
# HOS = conditions: Homo sapiens, 72 h, RAF WT, RAS WT, 3-day, read-out: gIC50
# Procedure, shortened: as §1
# DLD-1 = conditions: Homo sapiens, 72 h; DLD-1, RAF WT, KRAS(G13D), 3-day; read-out: gIC50
# Procedure, shortened: as §1
# NCI-H82 = conditions: Homo sapiens, 72 h; NCI-H82, RAF WT, RAS WT, 3-day; read-out: gIC50
# Procedure, shortened: as §1
# SW872 = conditions: Homo sapiens, 72 h; SW872, BRAF(V600E), RAS WT, 3-day; read-out: gIC50
# Procedure, shortened: as §1
# KHOS-240S = conditions: Homo sapiens, 72 h, RAF WT, RAS WT, 3-day, read-out: gIC50
# Procedure, shortened: as §1
# KYSE-30 = conditions: Homo sapiens, 72 h; KYSE-30, RAF WT, RAS WT, 3-day; read-out: gIC50
# Procedure, shortened: as §1
smiles,measurement,setting,value
CC(C)(C)c1nc(-c2cccc(NS(=O)(=O)c3c(F)cccc3F)c2F)c(-c2ccnc(N)n2)s1 [dabrafenib],IC50,A427,> 10 µM
same,IC50,SCC-12,> 10 µM
same,IC50,SK-N-DZ(note),> 10 µM
same,IC50,SKOV-3,> 10 µM
same,IC50,CESS,0.497 µM
same,IC50,CEM/C1,1.77 µM
same,IC50,SF-268,> 10 µM
same,IC50,HCC-2998,> 10 µM
same,IC50,NCI-H2052,> 10 µM
same,IC50,A549,> 10 µM
same,IC50,A673,> 10 µM
same,IC50,P3HR-1,> 10 µM
same,IC50,SW900,> 10 µM
same,IC50,MALME-3M,0.001 µM
same,IC50,G401,> 10 µM
same,IC50,MDA-MB-175 VII,> 10 µM
same,IC50,786-O,> 10 µM
same,IC50,NCI-H187,> 10 µM
same,IC50,SW756,> 10 µM
same,IC50,EB-3,> 10 µM
same,IC50,NCI-H2122,> 10 µM
same,IC50,Kato III,> 10 µM
same,IC50,UACC-257,0.006 µM
same,IC50,C3A,5.41 µM
same,IC50,Raji,> 10 µM
same,IC50,SR,> 10 µM
same,IC50,OE-19,> 10 µM
same,IC50,SW-780,> 10 µM
same,IC50,HOS,> 10 µM
same,IC50,DLD-1,> 10 µM
same,IC50,NCI-H82,> 10 µM
same,IC50,SW872,0.377 µM
same,IC50,KHOS-240S,> 10 µM
same,IC50,KYSE-30,> 10 µM

# From publication PMC3701070 (PLoS ONE, 2013)
